# Results: PubChem BioAssay AID602264 (The Scripps Research Institute Molecular Screening Center, 2012)
# Activity calls are given as the source filed them. No rule for the calls is given here.
# Biological target: Mu-type opioid receptor (Homo sapiens) + Delta-type opioid receptor (Homo sapiens) (UniProt P35372+P41143)
# Test: agonists of MOR-DOR heterodimerization, dose response, counter-screen for MC4R biased agonist project, cell-based, luminescence (AID 602264)
# Conditions: cell-based OPRM1-OPRD1 heterodimerization
# Sequence of Mu-type opioid receptor (Homo sapiens) + Delta-type opioid receptor (Homo sapiens) (P35372 whole entry, looked up): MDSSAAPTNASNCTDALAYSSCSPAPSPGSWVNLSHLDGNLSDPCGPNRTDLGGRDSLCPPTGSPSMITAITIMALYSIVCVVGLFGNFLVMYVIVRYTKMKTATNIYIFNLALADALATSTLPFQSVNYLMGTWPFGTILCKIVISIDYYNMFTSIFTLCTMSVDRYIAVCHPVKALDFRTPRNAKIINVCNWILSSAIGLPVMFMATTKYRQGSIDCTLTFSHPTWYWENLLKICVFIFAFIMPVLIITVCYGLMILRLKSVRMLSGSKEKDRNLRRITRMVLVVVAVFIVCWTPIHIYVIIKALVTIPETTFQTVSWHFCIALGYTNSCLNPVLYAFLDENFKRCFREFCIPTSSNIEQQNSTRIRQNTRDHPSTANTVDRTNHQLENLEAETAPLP
# Sequence of Mu-type opioid receptor (Homo sapiens) + Delta-type opioid receptor (Homo sapiens) (P41143 whole entry, looked up): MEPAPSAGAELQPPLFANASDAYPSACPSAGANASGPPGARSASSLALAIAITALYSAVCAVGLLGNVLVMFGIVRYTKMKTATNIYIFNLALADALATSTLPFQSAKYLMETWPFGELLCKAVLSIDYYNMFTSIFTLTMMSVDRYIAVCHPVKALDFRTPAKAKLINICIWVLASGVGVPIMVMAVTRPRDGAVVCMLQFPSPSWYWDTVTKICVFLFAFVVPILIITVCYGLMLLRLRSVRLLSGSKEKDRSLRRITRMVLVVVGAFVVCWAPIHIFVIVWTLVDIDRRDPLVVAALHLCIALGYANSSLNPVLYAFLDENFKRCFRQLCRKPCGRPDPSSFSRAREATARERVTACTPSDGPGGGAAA
row,SMILES,EC50
1,CC(=O)Nc1cc(-c2ccccc2)cn2c(-c3cccc(C(C)=O)c3)cnc12,> 64.6 µM (inactive)
2,Cc1ccc(C(=O)NCCNc2nc3cc(C)c(C)cc3cc2C)cc1,> 64.6 µM (inactive)
3,COc1ccc(-c2cnc3c(NC(C)=O)cc(-c4cc(F)ccc4OC)cn23)cc1OC,> 64.6 µM (inactive)
4,O=C(N=Nc1c(O)n(Cc2ccccc2)c2ccccc12)c1cc2ccccc2cc1O,> 92.5 µM (inactive)
5,CC1=NNC(=O)/C1=C\c1cn(-c2ccccc2)nc1-c1ccc(Cl)cc1,> 92.5 µM (inactive)
6,NC(Cc1ccc(C(F)(F)F)cc1)c1csc(NC(=O)Nc2ccccc2Cl)n1 (stereo not drawn),> 64.6 µM (inactive)
7,COc1cccc2sc(N(CCCN(C)C)C(=O)C(c3ccccc3)c3ccccc3)nc12,> 64.6 µM (inactive)
8,COc1ccc(-c2ccc3c(c2)S(=O)(=O)c2cccc(C(=O)NCc4cc(C)oc4C(F)(F)F)c2C3=O)cc1OC,> 92.5 µM (inactive)
9,COc1cc(NC(=O)Nc2nc(C(N)Cc3ccc(C(F)(F)F)cc3)cs2)cc(OC)c1OC (stereo not drawn),> 10.3 µM (inactive)
10,COc1ccc(CNCCc2ccc(Cl)cc2)cc1OCc1ccccc1,> 92.5 µM (inactive)
11,N#C/C(=C\c1ccc(-c2ccc(F)cc2)o1)C(=O)Nc1nc(-c2cccs2)cs1,> 64.6 µM (inactive)
12,COc1ccc(-c2csc(C3=C(O)CN(Cc4ccc(Cl)cc4)C3=N)n2)cc1OC,> 64.6 µM (inactive)
13,Cc1cc(C)nc(Nc2nc(C(N)Cc3ccc(Cl)cc3)cs2)n1 (stereo not drawn),> 92.5 µM (inactive)
14,CCOc1ccc(NC(=S)NC(=O)/C=C/c2ccc(C)cc2)c([N+](=O)[O-])c1,> 64.6 µM (inactive)
15,CC12CCC3C(CC=C4CC(O)CCC43C)C1C/C(=C\c1ccccc1F)C2=O (stereo not drawn),inactive
16,CCN1CCN(CCNC(=O)c2ccc(/C=C3\Sc4ccccc4N(Cc4ccccc4F)C3=O)cc2)CC1,> 92.5 µM (inactive)
17,NC(c1csc(NC(=O)Nc2cccc(Cl)c2)n1)C1CCCCC1 (stereo not drawn),> 92.5 µM (inactive)
18,Cc1ccccc1NC(=O)c1ccc(COc2ccc3c(C)cc(=O)oc3c2)cc1,> 64.6 µM (inactive)
19,O=C(NC(c1ccc(Cl)cc1)c1ccccn1)C1CCN(CCOc2ccc(Cl)cc2Cl)CC1 (stereo not drawn),> 92.4 µM (inactive)
20,CC(=O)Nc1cc(-c2ccccc2N(C)C)cn2c(-c3ccccc3)cnc12,> 92.4 µM (inactive)
21,NC(CCc1ccccc1)c1csc(Nc2ccc(C(=O)c3ccccc3)cc2)n1 (stereo not drawn),> 92.5 µM (inactive)
22,COc1ccccc1-c1cc(NC(C)=O)c2ncc(-c3ccccc3)n2c1,> 92.4 µM (inactive)

row,SMILES,EC50
1,CN(C)CCCN(C(=O)CCc1ccccc1)c1nc2ccc(Cl)cc2s1,> 92.4 µM (inactive)
2,Cc1cccc(C)c1-n1cccc1/C=C1\SC(=S)N(c2cccc(C(=O)O)c2)C1=O,> 92.5 µM (inactive)
3,COc1cc(-c2cc(NC=O)c3ncc(-c4ccc(C(C)=O)cc4)n3c2)cc(OC)c1OC,> 92.5 µM (inactive)
4,CCC(C)NC(=O)c1c(N)n(/N=C/c2cccnc2)c2nc3ccccc3nc12 (stereo not drawn),> 92.4 µM (inactive)
5,O=C(COc1ccc2c(c1)OCO2)Nc1ccc2c(c1)oc1ccccc12,> 92.5 µM (inactive)
6,CC(=O)Nc1cc(-c2ccccc2N(C)C)cn2c(-c3ccc(F)c(Cl)c3)cnc12,> 64.6 µM (inactive)
7,COc1ccc2nc(NC(=O)CSc3nc4cccnc4n3C)sc2c1,> 64.6 µM (inactive)
8,CCOc1ccc(Cn2c3ccc(OC)cc3c3nc4ccccc4nc32)cc1OC,> 64.6 µM (inactive)
9,CC1(C)Oc2ccc3ccc(=O)oc3c2/C(=C/Nc2ccc(O)cc2)C1=O,> 64.6 µM (inactive)
10,Cc1ccc(-c2nnc(-c3ccc(NC(=O)Cc4cccs4)cc3)o2)cc1,> 64.6 µM (inactive)
11,COc1ccc2sc(-c3ccc(S(C)(=O)=O)cc3)c(C#Cc3cncn3C)c2c1,> 92.5 µM (inactive)
12,CCOC(=O)c1ccc(-c2ccc(/C=C(\C#N)C(=O)NCc3cccs3)o2)cc1,> 64.6 µM (inactive)
13,CCc1ccc(OCCNc2cc(N3CCNC(C)C3)ccc2[N+](=O)[O-])cc1 (stereo not drawn),> 92.5 µM (inactive)
14,O=C1OC(c2ccccc2)(c2cc(Br)ccc2O)c2ccccc21 (stereo not drawn),inactive
15,COc1ccccc1NC(=O)Nc1nc(C(N)Cc2ccc(Cl)cc2)cs1 (stereo not drawn),> 92.5 µM (inactive)
16,C/C(=C\c1ccco1)C1C(C#N)=C(N)Oc2n[nH]c(-c3ccc(C)cc3)c21 (stereo not drawn),> 64.6 µM (inactive)
17,COc1ccc(-n2nc(C(=O)NCC(=O)Nc3ccccn3)c3ccccc3c2=O)cc1Cl,> 64.6 µM (inactive)
18,Cc1cc(C)nc(Nc2nc(C(N)Cc3ccc(C(F)(F)F)cc3)cs2)n1 (stereo not drawn),> 92.5 µM (inactive)
19,Cc1ccccc1-c1nc(-c2ccc(NC(=O)c3ccc(Br)o3)cc2)no1,> 92.5 µM (inactive)
20,CCCOC(=O)c1cccc(Nc2nc(-c3cccnc3)nc3ccccc23)c1,> 92.6 µM (inactive)
21,CC(/C=C/C=C/c1ccccc1)=N/NC(=O)CNc1ccccc1C,> 64.6 µM (inactive)
22,Cc1ccc(C(=O)c2coc3c2C(=O)C(=O)c2ccccc2-3)cc1,> 64.6 µM (inactive)

row,SMILES,EC50
1,CCn1c(SCC(=O)Nc2ccc(C(C)=O)cc2)nc2nc3c(cc2c1=O)CCCC3,> 64.6 µM (inactive)
2,CCN1CCN(Cc2ccc(NC(=O)c3cc(NC(=O)c4cc5cccc(OC)c5o4)cc(OC)c3)cc2C(F)(F)F)CC1,> 64.6 µM (inactive)
3,CC(=O)Nc1cc(-c2ccc(C(=O)N3CCOCC3)cc2)cn2c(-c3ccccc3)cnc12,> 92.5 µM (inactive)
4,Cc1c(CCOC(=O)CC23CC4CC(CC(C)(C4)C2)C3)sc[n+]1CC(=O)c1ccccc1,> 92.5 µM (inactive)
5,OC(CNCCc1ccc(C(F)(F)F)cc1)COc1cccc2ccccc12 (stereo not drawn),> 92.5 µM (inactive)
6,COc1cc(NS(=O)(=O)c2ccc(NC(=S)NC(=O)c3sc4ccccc4c3Cl)cc2)ncn1,> 92.4 µM (inactive)
7,CC(=O)Nc1cc(-c2cccc(F)c2)cn2c(-c3ccc(F)cc3)cnc12,> 92.5 µM (inactive)
8,CC1CCC(C(C)C)C(OC(=O)C[n+]2cc(-c3ccc(Cl)cc3)n3c2CCCCC3)C1 (stereo not drawn),> 92.5 µM (inactive)
9,COc1cc(-c2cc(NC=O)c3ncc(-c4ccccc4)n3c2)cc(OC)c1OC,> 64.6 µM (inactive)
10,Cc1ccc(C2=NN(C(=O)c3cccs3)C(c3ccccc3O)C2)cc1 (stereo not drawn),> 64.6 µM (inactive)
11,O=C(NC(c1ccccc1)c1ccc2ccccc2n1)C1CCN(CCOc2ccc(Cl)cc2Cl)CC1 (stereo not drawn),inactive
12,O=C1c2cccc3cccc(c23)C(=O)N1CC1CCN(CC(O)COc2ccc3ccccc3c2)CC1 (stereo not drawn),> 10.3 µM (inactive)
13,NC(c1ccccc1)c1csc(NC(=O)Nc2ccccc2Oc2ccccc2)n1 (stereo not drawn),> 92.5 µM (inactive)
14,Cc1ccc2nc(Nc3ccc4[nH]c(=O)[nH]c4c3)c(-n3nc(C)cc3C)nc2c1,> 64.6 µM (inactive)
15,O=C(c1ccc(COc2ccc(Br)cc2)o1)N1N=C(C(F)F)CC1(O)C(F)F (stereo not drawn),inactive
16,CN(C)CCNC(=O)c1cccc(-c2cc(NC=O)c3ncc(-c4cccc(C(F)(F)F)c4)n3c2)c1,> 92.5 µM (inactive)
17,Cc1ccc(NC(=O)c2ncn(CCCN3CCN(Cc4cccc5ccccc45)CC3)n2)cc1C,> 92.5 µM (inactive)
18,CCCCCCCNC(=O)C1(CC2CC(c3ccc(Cl)cc3)=NO2)CCNCC1 (stereo not drawn),> 64.6 µM (inactive)
19,COc1ccc(C(NC(=O)C2CCN(CCOc3ccc(Cl)cc3Cl)CC2)c2cccs2)cc1 (stereo not drawn),inactive
20,CC(=O)Nc1cc(-c2ccc(N(C)C)cc2)cn2c(-c3ccc(F)cc3)cnc12,> 64.6 µM (inactive)
21,CN(C)CCCN(C(=O)c1cc2cc([N+](=O)[O-])ccc2s1)c1nc2cc3c(cc2s1)OCCO3,> 92.5 µM (inactive)
22,Clc1ccccc1/C=N/NC1=Nc2cccc3cccc1c23,> 64.6 µM (inactive)

row,SMILES,EC50
1,CC(=O)Nc1cc(-c2cccnc2)cn2c(-c3ccc(F)cc3)cnc12,> 64.6 µM (inactive)
2,CC(C)CC(N)c1csc(Nc2ccc(C(F)(F)F)cn2)n1 (stereo not drawn),> 92.5 µM (inactive)
3,Cc1cccnc1C(NC(=O)C1CCN(CCOc2ccc(Cl)cc2Cl)CC1)c1ccc(Cl)cc1 (stereo not drawn),inactive
4,Cc1ccc(-c2csc3nc4c5ccccc5c(NCCCN(C)C)nn4c(=O)c23)cc1,> 64.6 µM (inactive)
5,COc1cccc(-c2cnc3c(NC(C)=O)cc(-c4ccc(C(=O)N5CCOCC5)cc4)cn23)c1,> 64.6 µM (inactive)
6,COc1cccc(-c2cnc3c(NC(C)=O)cc(-c4cc(F)ccc4OC)cn23)c1,> 92.5 µM (inactive)
7,Cc1cc(C)c2sc(N(CCCN(C)C)C(=O)COc3ccc(Cl)cc3)nc2c1,> 92.5 µM (inactive)
8,CN(C)CCOc1ccc(-c2c(-c3ccsc3)sc3ccccc23)cc1,> 92.5 µM (inactive)
9,COc1cccc(-c2cnc3c(NC(C)=O)cc(-c4ccsc4)cn23)c1,> 92.5 µM (inactive)
10,CCN1CCN(Cc2ccc(NC(=O)c3cc(NC(=O)C(=O)c4c[nH]c5ccccc45)cc(OC)c3)cc2C(F)(F)F)CC1,> 92.5 µM (inactive)
11,COc1ccc(-c2cc(NC=O)c3ncc(-c4cccc(C(F)(F)F)c4)n3c2)cc1OC,> 64.6 µM (inactive)
12,CCOC(=O)C(=CNc1ccc2c(c1)nnn2-c1ccc(Cl)cc1)C(=O)OCC,> 64.6 µM (inactive)
13,Cc1cc(NC(=O)c2cncc(Br)c2)ccc1NC(=O)c1cc2ccccc2o1,> 64.6 µM (inactive)
14,Cc1ccc(O)c(C(=O)/C=C/c2ccc3c(c2)OCCCO3)c1,> 64.6 µM (inactive)
15,CC(=O)Nc1cc(-c2ccc(C(=O)NC3CC3)cc2)cn2c(-c3cccc(C(C)=O)c3)cnc12,> 64.6 µM (inactive)
16,CCN1/C(=C/c2ccc3cc(C)ccc3[n+]2CC)Sc2cc(C)c(C)cc21,> 10.3 µM (inactive)
17,CC(=O)Nc1cc(-c2cccc(C(=O)N(C)C)c2)cn2c(-c3ccc(F)c(Cl)c3)cnc12,> 64.6 µM (inactive)
18,COc1ccc(NC(=O)COC(=O)c2c(NC(C)=O)sc(C)c2C)cc1,> 92.5 µM (inactive)
19,O=C(CCN1C(=O)/C(=C/C=C/c2ccccc2)SC1=S)Nc1cccnc1,> 92.5 µM (inactive)
20,NC(N)=Nc1nc(-c2ccccc2)c2cc(Cl)ccc2n1,> 10.3 µM (inactive)
21,COc1cc2nc(Nc3ccc(C)c(Cl)c3)nc(N)c2cc1OC,> 92.5 µM (inactive)
22,COc1cc(/C=C2\Oc3ccc(C#Cc4ccc(O)cc4)cc3C2=O)cc(OC)c1,> 92.5 µM (inactive)
